Calls of active or inactive are those of the source. No stated cut-off is given here; in the data, actives have a measured IC50 and inactives only a lower limit.

For the assay, the target named is Envelope glycoprotein gp160 (Human immunodeficiency virus 1, UniProt Q6QLK5). The experiment in a line: inhibitors of HIV fusion peptide binding, primary screen, biochemical, uHTS, fluorescence dequenching (AID 1986).
Chain of Envelope glycoprotein gp160 (Q6QLK5 whole entry, the tested form may be a part): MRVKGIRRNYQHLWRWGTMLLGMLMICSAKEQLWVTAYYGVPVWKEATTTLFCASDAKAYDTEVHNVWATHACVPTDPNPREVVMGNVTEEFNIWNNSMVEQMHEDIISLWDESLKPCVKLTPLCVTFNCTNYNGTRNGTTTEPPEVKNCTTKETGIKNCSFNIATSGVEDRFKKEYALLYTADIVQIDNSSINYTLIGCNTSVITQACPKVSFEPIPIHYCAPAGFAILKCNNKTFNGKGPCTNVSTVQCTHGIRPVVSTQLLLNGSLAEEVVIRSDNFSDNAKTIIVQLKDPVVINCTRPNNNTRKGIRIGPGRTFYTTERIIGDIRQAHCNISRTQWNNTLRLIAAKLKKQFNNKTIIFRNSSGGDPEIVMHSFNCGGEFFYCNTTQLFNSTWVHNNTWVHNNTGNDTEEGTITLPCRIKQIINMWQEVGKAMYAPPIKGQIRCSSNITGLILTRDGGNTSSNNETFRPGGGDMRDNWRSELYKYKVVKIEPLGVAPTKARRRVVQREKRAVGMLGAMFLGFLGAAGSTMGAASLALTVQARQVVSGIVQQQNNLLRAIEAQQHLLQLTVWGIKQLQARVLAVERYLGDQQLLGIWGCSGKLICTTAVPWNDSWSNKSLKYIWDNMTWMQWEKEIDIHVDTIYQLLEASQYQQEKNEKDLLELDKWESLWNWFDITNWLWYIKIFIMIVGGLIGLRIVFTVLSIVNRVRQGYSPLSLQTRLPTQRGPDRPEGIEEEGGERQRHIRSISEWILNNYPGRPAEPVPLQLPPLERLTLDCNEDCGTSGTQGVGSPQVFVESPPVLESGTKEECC
Regarding `CCc1ccc(/C=C2\SC(=S)N(CCCC(=O)Nc3ccccc3C(=O)O)C2=O)cc1`, the 50% inhibitory concentration (IC50) (in general, the point on the concentration scale where inhibition reaches its midpoint) is 12.4 µM (active). The result for `CCOc1ccc(C2C(C(=O)Nc3ccccc3)=C(C)N=c3s/c(=C/c4cccc(OCC(=O)O)c4)c(=O)n32)cc1` (stereo not drawn) reads 28.8 µM (active). The result for `COc1cc(/C=C(\C#N)c2nc3cc(C)ccc3[nH]2)cc([N+](=O)[O-])c1O` reads 18.7 µM (active).

Source of the values: ChEMBL document CHEMBL1201862, “PubChem BioAssay data set” (2004).
